Where two headings read alike, the source gives them in different places.
Columns and labels:
[1] = test system: LPS-activated TLR4 signal; assay: LPS-activated TLR4 signaling in RAW264.7 cells (immunoblotting); type: cell-based, mouse; details: for effect on TLR4 expression: 0.5 μM or 1 μM, LPS-treated RAW264.7, 24 hrs; for inhibition of LPS-increased pTAK1, TRAF6, NFκB p50, phospho-NF-κB p65, pCREB, HMGB1, MCP-1 and TNFα (overall): 0.5-1.0 μM; for inhibition of LPS-increased pTAK1, TRAF6, NFκB p50, phospho-NF-κB p65, pCREB, HMGB1, MCP-1 and TNFα (overall) / inhibition at 0.5 µM / inhibition at 1 µM / inhibition of LPS-induced NFκB p50 / inhibition of the effect of LPS activation of TLR4 on MCP-1 / inhibition of the effect of LPS activation on TRAF6 / inhibition of the effect of LPS activation on pTAK1 / inhibition of the effect of LPS on HMGB1 / inhibition of the effect of LPS on TNFα / inhibition of the effect of LPS on pCREB / inhibition of the effect of LPS on phospho-NF-κB p65: RAW264.7; for inhibition at 0.5 µM / inhibition at 1 µM: Mus musculus; for inhibition at 0.5 µM / inhibition at 1 µM / inhibition of LPS-induced NFκB p50 / inhibition of the effect of LPS activation of TLR4 on MCP-1 / inhibition of the effect of LPS activation on TRAF6 / inhibition of the effect of LPS activation on pTAK1 / inhibition of the effect of LPS on HMGB1 / inhibition of the effect of LPS on TNFα / inhibition of the effect of LPS on pCREB / inhibition of the effect of LPS on phospho-NF-κB p65: LPS 1 μg/ml, 24 hrs
Description: Cells and reagents. Mouse monocyte macrophage ceils (RAW264.7) that innately express the TLR4 receptor were obtained from American Type Culture Collection (Manassas, Va., USA). The cells were grown in Dulbecco's modified Eagle's medium (DMEM) (Gibco; Gaithersburg, Md., USA) supplemented with 10% fetal bovine serum (FBS, Gemini, West Sacramento, Calif., USA), 1% penicillin/streptomycin 100× (Gibco) at 37° C. in a 5% CO2 humidified atmosphere. The TLR4-specific ligand IPS was purchased from Sigma-Aldrich (St. Louis, Mo., USA) (Cat. #L3024) and added to the cultures (1 μg/ml) 24 hrs before cell collection.
Immunoblotting. The assay used for RAW264.7 cell lysates and co-immunoprecipitation was as previously described (Aurelian et al, 2016; June et al, 2015; Liu et al, 2011). RAW246.7 cells grown on T-75 flasks (n=5 flasks/group) were lysed with radioimmunoprecipitation (RIPA) buffer [20 mM Tris-HCl (pH 7.4), […], 1% Nonidet P-40 (Sigma, St. Louis, Mo., USA), 0.1% SDS (sodium dodecyl sulfate), 0.5% sodium deoxycholate] supplemented with protease and phosphatase inhibitor cocktails (Sigma). The total protein was determined by the bicinchoninic acid assay (BCA, Thermo Fisher Scientific, Waltham, Mass., USA, Cat. #23228 and Cat. #1859078). The proteins (100 μg/lane) were resolved by SDS-polyacrylamide gel electrophoresis using freshly prepared 16×18 cm gels and transferred to polyvinylidene fluoride membranes (PVDF, Bio-Rad, Cat. #162-0177). Blots were blocked with 5% Blotting-Grade Blocker (Bio-Rad, Cat. #1706404; for non-phosphorylated primary antibodies) or 5% BSA (for phosphorylated primary antibodies) for 2 hrs at room temperature (RT) and exposed to primary antibody overnight (4° C.), followed by horseradish peroxidase-labeled secondary antibodies for 1 h (room temp), immunoreactive bands were visualized with the Plus-ECL kit reagents (Perkin Elmer, Waltham, Mass., USA, Cat. #NEL105001EA) followed by exposure to high-performance chemiluminescence film (Hyperfilm ECL; Amersham). Quantitation was by densitometric scanning with a Bio-Rad GS-700 imaging densitometer. Blots were stripped and re-probed with different primary antibodies 3-5 times. Each densitometric measurement was divided by the corresponding β-Actin densitometric measurement and the results [n=5/group] are expressed as the mean β-Actin-adjusted densitometric units±SEM.
To examine whether the neurosteroids inhibit the LPS-activated TLR4 signal, RAW264.7 cells were treated with IPS (1 μg/mi; 24 hrs) in the absence or presence of 3α,5α-THP (0.5 μM, 1 μM) or pregnenolone (0.5 μM, 1 μM), and ceil extracts were assayed for expression of MyD88-dependent pathway members, by immunoblotting with antibodies to pTAK1, monocyte chemotactic protein (MCP-1), TRAF6, TLR4, and transcription factor NFκB p50 (Chattopadhyay S, et al. (2014). Cytokine Growth Factor Rev 25(5): 533-541; Irie T, et al. (2000). FEBS Lett 467(2-3): […]; Lu Y C, et al. (2008). Cytokine 42(2): 145-151).
Because the neurosteroids had relatively little effect on NFκB p50, the possibility that inhibition of other transcription factors and proinflammatory responses may be involved was considered. RAW246.7 ceils were treated as described above and protein extracts were immunoblotted with antibodies to phospho-NF-κB p65, pCREB, the proinflammatory cytokine tumor necrosis factor alpha (TNFα), and high mobility group box-1 (HMGB1), a highly conserved non-histone chromosomal protein, the translocation of which from the intra- to extra-cellular environment is a critical event in inflammatory responses. Indeed, HMGB1 is currently recognized as a cytokine secreted from activated macrophages and other inflammatory cells during the innate immune response and if is believed to function as a TLR4 ligand. […]

TLR7 signal = assay: Imiquimod-activated TLR7 signaling in RAW264.7 cells; type: cell-based, mouse; details: 1 μM; imiquimod 1 μg/ml; 24 hours
Description: Because multiple TLRs signal through MD-2, […] and MyD-88, the specificity of the neurosteroid 3α,5α-THP on TLR2, TLRS and TLR7 signal activation was examined in RAW264.7 ceils (FIG. 7). Pam3Cys (10 μg/ml) activated TLR2 signaling, evidenced by increases in pCREB, pERK1/2, TRAF6 and pATF-2, that were sustained for 24 hrs and inhibited by 3α,5α-THP (1 μM) (50-60% compared to vehicle).

CX3CL1 = CX3CL1 expression in human macrophages; type: cell-based; details: 1 μM
[2] = 3α,5α-THP radioimmunoassay of RAW264.7 cell culture media (conversion of pregnenolone); type: in vitro ADME, mouse
Description: 3α,5α-THP Radioimmunoassay (RIA), 3α,5α-THP concentrations in the RAW264.7 cell media were measured by radioimmunoassay as described elsewhere (VanDoren et al, 2000), modified for use with cell media (Cook et al, 2014), Briefly, 3α,5α-THP was extracted from ceil media three times with 3 ml of ethyl acetate and spiked with 1000 counts per minute of [^3H]3α,5α-THP for recovery. The extracts were purified using solid phase silica columns (Burdick and Jackson, Muskegon, Mich.) and used for the assay (run in duplicate) and for recovery measurement. Steroid levels in the samples were extrapolated from a concurrently run standard curve and corrected for their respective extraction efficiencies. The 3α,5α-THP antibody (1:500) was provided by the late Dr. Robert Purdy at Scripps Research Institute. […] The validity of the assay has been verified by gas chromatography mass spectrometry determinations (Porcu et al, 2010), 3α,5α-THP values are expressed as ng/ml of cell media.
Since pregnenolone is a precursor for 3α,5α-THP, the possibility that pregnenolone may have been converted in the RAW264.7 cells was considered by analysis of 3α,5α-THP levels in the cell culture media at the time of cell harvest, 3α,5α-THP was detected at less than 0.69±0.11 nmol/L, indicative of less than 0.1% conversion of 1.0 μM pregnenolone.

## CC(=O)[C@H]1CC[C@H]2[C@@H]3CC[C@H]4C[C@H](O)CC[C@]4(C)[C@H]3CC[C@]12C [3α,5α-THP, (3α,5α)3-hydroxypregnan-20-one]
[1]
  effect on TLR4 expression: did not affect
  inhibition of LPS-increased pTAK1, TRAF6, NFκB p50, phospho-NF-κB p65, pCREB, HMGB1, MCP-1 and TNFα (overall): ~80%
[1]; 0.5 μM, read-out: inhibition of LPS-induced NFκB p50
  inhibition at 0.5 µM: 19.8 ± 7.9%
[1]; 0.5 μM, read-out: inhibition of the effect of LPS activation of TLR4 on MCP-1
  inhibition at 0.5 µM: 81.5 ± 3.8%
[1]; 0.5 μM, read-out: inhibition of the effect of LPS activation on TRAF6
  inhibition at 0.5 µM: 54.5 ± 5.5%
[1]; 0.5 μM, read-out: inhibition of the effect of LPS activation on pTAK1
  inhibition at 0.5 µM: 37.8 ± 7.7%
[1]; 0.5 μM, read-out: inhibition of the effect of LPS on HMGB1
  inhibition at 0.5 µM: 88.9 ± 11%
[1]; 0.5 μM, read-out: inhibition of the effect of LPS on TNFα
  inhibition at 0.5 µM: 77.8 ± 7.3%
[1]; 0.5 μM, read-out: inhibition of the effect of LPS on pCREB
  inhibition at 0.5 µM: 97.2 ± 1.9%
[1]; 0.5 μM, read-out: inhibition of the effect of LPS on phospho-NF-κB p65
  inhibition at 0.5 µM: 90.1 ± 8.5%
[1]; 1.0 μM, read-out: inhibition of LPS-induced NFκB p50
  inhibition at 1 µM: 38.3 ± 7.3%
[1]; 1.0 μM, read-out: inhibition of the effect of LPS activation of TLR4 on MCP-1
  inhibition at 1 µM: 85.2 ± 4.5%
[1]; 1.0 μM, read-out: inhibition of the effect of LPS activation on TRAF6
  inhibition at 1 µM: 55.3 ± 2.6%
[1]; 1.0 μM, read-out: inhibition of the effect of LPS activation on pTAK1
  inhibition at 1 µM: 71.7 ± 3.6%
[1]; 1.0 μM, read-out: inhibition of the effect of LPS on HMGB1
  inhibition at 1 µM: 58.6 ± 5.5%
[1]; 1.0 μM, read-out: inhibition of the effect of LPS on TNFα
  inhibition at 1 µM: 70.9 ± 3.5%
[1]; 1.0 μM, read-out: inhibition of the effect of LPS on pCREB
  inhibition at 1 µM: 94.8 ± 3.4%
[1]; 1.0 μM, read-out: inhibition of the effect of LPS on phospho-NF-κB p65
  inhibition at 1 µM: 88.9 ± 10.8%
TLR7 signal
  effect of imiquimod on pIRF7: completely inhibited
CX3CL1
  expression of the anti-inflammatory cytokine CX3CL1: increases expression

## CC(=O)[C@H]1CC[C@H]2[C@@H]3CC=C4C[C@@H](O)CC[C@]4(C)[C@H]3CC[C@]12C [pregnenolone]
[1]
  effect on TLR4 expression: did not affect
  inhibition of LPS-increased pTAK1, TRAF6, NFκB p50, phospho-NF-κB p65, pCREB, HMGB1, MCP-1 and TNFα (overall): ~80%
[1]; 0.5 μM
  inhibition of LPS-induced NFκB p50: 25.3±7.4%
  inhibition of the effect of LPS activation of TLR4 on MCP-1: 77.3±7.3%
  inhibition of the effect of LPS activation on TRAF6: 73.7±1.3%
  inhibition of the effect of LPS activation on pTAK1: 76.2±2.0%
  inhibition of the effect of LPS on HMGB1: 52.0±9.8%
  inhibition of the effect of LPS on TNFα: 61.7±3.6%
  inhibition of the effect of LPS on pCREB: 84.8±9.9%
  inhibition of the effect of LPS on phospho-NF-κB p65: 86.7±7.3%
[1]; 1.0 μM
  inhibition of LPS-induced NFκB p50: 28.8±6.7%
  inhibition of the effect of LPS activation of TLR4 on MCP-1: 85.8±4.4%
  inhibition of the effect of LPS activation on TRAF6: 88.5±6.8%
  inhibition of the effect of LPS activation on pTAK1: 95.2±2.5%
  inhibition of the effect of LPS on HMGB1: 57.5±12.8%
  inhibition of the effect of LPS on TNFα: 65.1±7.7%
  inhibition of the effect of LPS on pCREB: 83.7±8.9%
  inhibition of the effect of LPS on phospho-NF-κB p65: 88.1±5.5%
[2]; 1.0 μM pregnenolone, RAW264.7 cells
  conversion of pregnenolone to 3α,5α-THP: less than 0.1%
[2]; RAW264.7 cells treated with 1.0 μM pregnenolone
  3α,5α-THP level in the cell culture media at the time of cell harvest: less than 0.69±0.11 nmol/L

From US20210205329A1 (The University of North Carolina at Chapel Hill, priority 2018, published 2021)
